Where two headings read alike, the source gives them in different places.
How the values were obtained:
SOS1 = SOS1 (Homo sapiens (Human), UniProt Q07889); test: Ras-SOS interaction assay (HTRF); assay type: biochemical
Source text: The ability of any compound of the present disclosure to reduce a Ras protein signaling output by, e.g., interfering or disrupting interaction (or binding) between SOS1 and a Ras protein can be assessed in vitro. For example, the equilibrium interaction of human SOS1 (hSOS1) with human wildtype Kras or K-Ras mutant (e.g., hK-Ras G12C mutant, or hK-RasG12C) can be assessed as a proxy or an indication for a subject compound's ability to inhibit SOS. Detection of such interaction is achieved by measuring homogenous time-resolved fluorescence resonance energy transfer (HTRF) from (i) a fluorescence resonance energy transfer (FRET) donor (e.g., antiGST-Europium) that is bound to GST-tagged K-RasG12C to (ii) a FRET acceptor (e.g., anti-6His-XL665) bound to a His-tagged hSOS1.
The assay buffer can contain 5 mM HEPES pH 7.4, 150 mM NaCl, 10 mM EDTA, 1 mM DTT, 0.05% BSA, 0.0025% (v/v) Igepal and 100 mM KF. A Ras working solution is prepared in assay buffer containing typically 10 nM of the protein construct (e.g., GST-tagged hK-RasG12C) and 2 nM of the FRET donor (e.g., antiGST-Eu(K) from Cisbio, France). A SOS1 working solution is prepared in assay buffer containing typically 10 nM of the protein construct (e.g., His-hSOS1) and 10 nM of the FRET acceptor (e.g., anti-6His-XL665 from Cisbio, France). An inhibitor control solution is prepared in assay buffer containing 10 nM of the FRET acceptor without the SOS1 protein.
A fixed reaction mixture with or without test compound is transferred into a 384-well plate. Ras working solution is added to all wells of the test plate. SOS1 working solution is added to all wells except for those that are subsequently filled the inhibitor control solution. After approximately 60 min incubation, the fluorescence is measured with a M1000Pro plate reader (Tecan) using HTRF detection (excitation 337 nm, emission 1: 620 nm, emission 2: 665 nm). Compounds are tested in duplicates at different concentrations (for example, 10 μM, 2.5 μM, 0.63 μM, 0.16 μM, 0.04 μM, 0.01 μM test compound). The ratiometric data (i.e., emission 2 divided by emission 1) is used to calculate IC50 values against SOS1 using GraphPad Prism (GraphPad software).

[1] = system: NCI-H1975 cells (EGFR T790M L858R); test: EGFR-SOS cellular inhibition assay (CellTiter-Glo, 3D); assay type: cell-based
[2] = system: MIA PaCa-2 cells (K-Ras G12C); test: Ras-SOS cellular growth inhibition assay (CellTiter-Glo, 3D); assay type: cell-based
Method: MIA PaCa-2 (ATCC CRL-1420) and NCI-H1792 (ATCC CRL-5895) cell lines comprise a G12C mutation can be used to assess Ras cellular signaling in vitro, e.g., in response to a subject compound of the present disclosure. […] Cell culture medium (comprising, for example, MIA PaCa-2 cells) is prepared with DMEM/Ham's F12 (e.g., with stable Glutamine, 10% FCS, and 2.5% Horse Serum. NCI-H1792 culture medium is prepared with RPMI 1640 (e.g., with stable Glutamine) and 10% FCS. A CellTiter-Glo (CTG) luminescent based assay (Promega) is used to assess growth of the cells, as a measurement of the ability of the compounds herein to inhibit Ras signaling in the cells. The cells (e.g., 800-1200 per well) are seeded in their respective culture medium in standard tissue culture-treated ultra-low attachment surface 96-well format plates (Corning Costar #3474). The day after plating, cells are treated with a dilution series (e.g., a 9 point 3-fold dilution series) of the compounds herein (e.g., approximately 125 μl final volume per well). Cell viability can be monitored (e.g., approximately 5 days later) according to the manufacturer's recommended instructions, where the CellTiter-Glo reagent is added (e.g., approximately 65 μl), vigorously mixed, covered, and placed on a plate shaker (e.g., approximately for 20 min) to ensure sufficient cell lysis prior to assessment of luminescent signal. The IC50 values are determined using the four-parameter fit. The resulting IC50 value is a measurement of the ability of the compounds herein to reduce cell growth of Ras-driven cells as representative tumor cells.

[3] = K-RasG13D utilized, read-out: IC50 inhibition of SOS
[4] = K-RasG13D, read-out: IC50 value against SOS1
[5] = NCI-H1975, 3D proliferation, about 5 days, read-out: Bio-Cell-Prolif-3D (H1975 IC50)
[6] = NCI-H1975, EGFR T790M L858R, read-out: IC50 in inhibiting growth of NCI-H1975 cell line
[7] = MIA PaCa-2, 3D proliferation, about 5 days, read-out: Bio-Cell-Prolif-3D (MiaPaca2 IC50)
[8] = MIA PaCa-2, read-out: IC50 in inhibiting MIA PaCa-2 cell growth
[9] = Homo sapiens, 120 h, NCI-H1975, 3D proliferation, about 5 days, read-out: Bio-Cell-Prolif-3D (H1975 IC50)
[10] = Homo sapiens, NCI-H1975, EGFR T790M L858R, read-out: IC50 in inhibiting growth of NCI-H1975 cell line
[11] = Homo sapiens, MIA PaCa-2, 120 h, MIA PaCa-2, 3D proliferation, about 5 days, read-out: Bio-Cell-Prolif-3D (MiaPaca2 IC50)
[12] = Homo sapiens, MIA PaCa-2, MIA PaCa-2, read-out: IC50 in inhibiting MIA PaCa-2 cell growth

Compound	IC50 (SOS1; [3])	IC50 (SOS1; [4])	IC50 [1, 9]	IC50 [1, 10]	IC50 [2, 11]	IC50 [2, 12]	IC50 [1, 5]	IC50 [1, 6]	IC50 [2, 7]	IC50 [2, 8]
4-(4-((1-(3-(difluoro(tetrahydrofuran-3-yl)methyl)-2-fluorophenyl)ethyl)amino)-7-methoxy-2-methylpyrido[2,3-d]pyrimidin-6-yl)tetrahydro-2H-thiopyran 1,1-dioxide [Compound 148]	< 100 nM	< 50 nM	–	–	–	–	≤ 1000 nM	< 500 nM	≤ 1000 nM	< 500 nM
Cc1nc(N[C@H](C)c2cccc(C(F)(F)C(C)O)c2F)c2cc(C3(C#N)CC3)c(Cl)nc2n1 (stereo in doubt) [Compound 333, 1-(7-chloro-4-(((R)-1-(3-((S)-1,1-difluoro-2-hydroxypropyl)-2-fluorophenyl)ethyl)amino)-2-methylpyrido[2,3-d]pyrimidin-6-yl)cyclopropane-1-carbonitrile]	< 100 nM	< 50 nM	≤ 1000 nM	< 500 nM	≤ 1000 nM	< 500 nM	–	–	–	–
COc1nc2nc(C)nc(N[C@H](C)c3cccc(C(F)F)c3F)c2cc1C1(C#N)CC1 [Compound 101, 1-(4-((R)-1-(2-fluoro-3-(difluoromethyl)phenyl)ethylamino)-7-methoxy-2-methylpyrido[2,3-d]pyrimidin-6-yl)cyclopropanecarbonitrile]	< 100 nM	–	≤ 1000 nM	–	≤ 1000 nM	–	–	–	–	–
Cc1nc(N[C@H](C)c2cccc(C(F)F)c2F)c2cc(C3CCN(C(C)C)CC3)c(Cl)nc2n1 [Compound 104, (R)-7-chloro-N-(1-(3-(difluoromethyl)-2-fluorophenyl)ethyl)-6-(1-isopropylpiperidin-4-yl)-2-methylpyrido[2,3-d]pyrimidin-4-amine]	< 100 nM	< 50 nM	≤ 1000 nM	< 500 nM	≤ 1000 nM	< 500 nM	–	–	–	–
COc1nc2nc(C)nc(N[C@H](C)c3cccc(C(F)F)c3F)c2cc1CN1CCN(C(C)C)CC1 [Compound 105, (R)—N-(1-(3-(difluoromethyl)-2-fluorophenyl)ethyl)-6-((4-isopropylpiperazin-1-yl)methyl)-7-methoxy-2-methylpyrido[2,3-d]pyrimidin-4-amine]	< 100 nM	< 50 nM	≤ 1000 nM	< 500 nM	≤ 1000 nM	< 500 nM	–	–	–	–
COc1nc2nc(C)nc(N[C@H](C)c3cccc(C(F)F)c3F)c2cc1N1CCNCC1 [Compound 110, (R)-N-(1-(3-(difluoromethyl)-2-fluorophenyl)ethyl)-7-methoxy-2-methyl-6-(piperazin-1-yl)pyrido[2,3-d]pyrimidin-4-amine]	< 100 nM	–	≤ 1000 nM	–	≤ 1000 nM	–	–	–	–	–
Cc1nc(N[C@H](C)c2cccc(C(F)F)c2F)c2cc(C3CCN(C)CC3)c(OCCN(C)C)nc2n1 [Compound 155]	–	–	≤ 1000 nM	–	≤ 1000 nM	–	–	–	–	–
COc1nc2nc(C)nc(N[C@H](C)c3cccc(C(F)(F)C4CCN(C)CC4)c3F)c2cc1N1CCN(C(C)C)CC1 [Compound 182, (R)-N-(1-(3-(difluoro(1-methylpiperidin-4-yl)methyl)-2-fluorophenyl)ethyl)-6-(4-isopropylpiperazin-1-yl)-7-methoxy-2-methylpyrido[2,3-d]pyrimidin-4-amine]	–	–	≤ 1000 nM	< 500 nM	≤ 1000 nM	< 500 nM	–	–	–	–
(R)-4-(4-((1-(3-(2-(2-(dimethylamino)ethoxy)-1,1-difluoroethyl)-2-fluorophenyl)ethyl)amino)-7-methoxy-2-methylpyrido[2,3-d]pyrimidin-6-yl)tetrahydro-2H-thiopyran 1,1-dioxide [Compound 271]	–	–	–	–	–	–	≤ 1000 nM	< 500 nM	≤ 1000 nM	< 500 nM

Second part, led by results:

IC50 (SOS1; [3])	IC50 (SOS1; [4])	IC50 [1, 9]	IC50 [1, 10]	IC50 [2, 11]	IC50 [2, 12]	Compound	IC50 [1, 5]	IC50 [1, 6]	IC50 [2, 7]	IC50 [2, 8]
–	–	≤ 1000 nM	< 500 nM	≤ 1000 nM	< 500 nM	COc1nc2nc(C)nc(N[C@H](C)c3cccc(C(F)(F)C4CCN(C(C)C)CC4)c3F)c2cc1C1(C#N)CC1 [Compound 377, (R)-1-(4-((1-(3-(difluoro(1-isopropylpiperidin-4-yl)methyl)-2-fluorophenyl)ethyl)amino)-7-methoxy-2-methylpyrido[2,3-d]pyrimidin-6-yl)cyclopropane-1-carbonitrile]	–	–	–	–
< 100 nM	< 50 nM	–	–	–	< 500 nM	COc1nc2nc(C)nc(N[C@H](C)c3cccc(C(F)(F)F)c3C)c2cc1C1CCN(C)CC1 [Compound 380, (R)-7-methoxy-2-methyl-N-(1-(2-methyl-3-(trifluoromethyl)phenyl)ethyl)-6-(1-methylpiperidin-4-yl)pyrido[2,3-d] pyrimidin-4-amine]	–	–	–	–
< 100 nM	< 50 nM	–	–	–	–	COc1nc2nc(C)nc(N[C@H](C)c3cccc(C(F)(F)C4CCN(C(C)C)CC4)c3F)c2cc1C1CCN(C)CC1 [Compound 424, (R)-N-(1-(3-(difluoro(1-isopropylpiperidin-4-yl)methyl)-2-fluorophenyl)ethyl)-7-methoxy-2-methyl-6-(1-methylpiperidin-4-yl)pyrido[2,3-d]pyrimidin-4-amine]	–	–	–	–
< 100 nM	< 50 nM	–	–	–	–	COc1nc2nc(CCN3CCC3)nc(N[C@H](C)c3cccc(C(C)(F)F)c3F)c2cc1C1(C#N)CC1 [Compound 425, (R)-1-(2-(2-(azetidin-1-yl)ethyl)-4-((1-(3-(1,1-difluoroethyl)-2-fluorophenyl)ethyl)amino)-7-methoxypyrido[2,3-d]pyrimidin-6-yl)cyclopropane-1-carbonitrile]	–	–	–	–
< 100 nM	–	–	–	–	–	COc1nc2nc(CCN3CCC3)nc(N[C@H](C)c3cccc(C(F)(F)F)c3F)c2cc1C1(C#N)CC1 [Compound 426, (R)-1-(2-(2-(azetidin-1-yl)ethyl)-4-((1-(2-fluoro-3-(trifluoromethyl)phenyl)ethyl)amino)-7-methoxypyrido[2,3-d]pyrimidin-6-yl)cyclopropane-1-carbonitrile]	–	–	–	–
< 100 nM	< 50 nM	–	–	–	–	COc1nc2nc(CCN3CCC3)nc(N[C@H](C)c3cccc(C(F)(F)F)c3C)c2cc1C1(C#N)CC1 [Compound 427, (R)-1-(2-(2-(azetidin-1-yl)ethyl)-7-methoxy-4-((1-(2-methyl-3-(trifluoromethyl)phenyl)ethyl)amino)pyrido[2,3-d]pyrimidin-6-yl) cyclopropane-1-carbonitrile]	–	–	–	–
